Patent US11076595B2, “1-(n,n-disubstituted carbamoyl) 4-(substituted sulfonyl)triazolin-5-one derivative, 4-(n,n-disubstituted carbamoyl) 1-(substituted sulfonyl)triazolin-5-one derivative, and herbicide containing said derivative as active ingredient” (HOKKO CHEMICAL INDUSTRY CO., LTD., priority 2017, dated 2021)

Assays:
Format in all cases: in vivo
[1] = system: Lindernia pyxidaria; experiment: Test Example 2: herbicidal effect test by treatment during growing period in paddy field; settings: treatment 7 days after sowing, 120 g/10a, evaluated 14 days after treatment
Experimental: (§1) This test was performed with two replications per one formulation concentration plot, and 14 days after the formulation treatments, the weed suppression rate (%) was determined according to the following equation (Math. 1). Weed suppression rate (%)=(1−an average dry weight (g) of plants in treated plots/an average dry weight (g) of plants in untreated plots)×100 [Math. 1]
(§2) A Wagner pot having an area of 1/10000 are was filled with paddy field soil and after adding water, a chemical fertilizer (N:P:K=17:17:17) was mixed, followed by puddling. Thereafter, 30 grains of each of Echinochloa crus-galli, broad-leaved weed (Lindernia pyxidaria and Monochoria vaginalis) and Scirpus juncoides seeds were sown to a depth of 0 to 1 cm. Immediately after the sowing, the pot was flooded, and the depth of water was kept at about 3 cm. The pot was subsequently managed in a glass greenhouse. Seven days after sowing, an emulsifiable concentrate prepared according to Formulation Example 5 by using the compound shown in Table 6 below was diluted with water, and a predetermined amount of the water-diluted formulation was added dropwise. The application rate of the active ingredient, by conversion, corresponded to 120 g per 10 are. The test was performed with two replications per one formulation concentration plot, and 14 days after the formulation treatments, the weed suppression rate (%) was determined according to the equation (Math. 1).

[2] = system: Scirpus juncoides; experiment: as above; settings: treatment 7 days after sowing, 120 g/10a, evaluated 14 days after treatment
Experimental: as §1, §2

[3] = system: Echinochloa crus-galli; experiment: as above; settings: treatment 7 days after sowing, 120 g/10a, evaluated 14 days after treatment
Experimental: as §1, §2

[4] = system: Monochoria vaginalis; experiment: as above; settings: treatment 7 days after sowing, 120 g/10a, evaluated 14 days after treatment
Experimental: as §1, §2

[5] = system: Lindernia pyxidaria; experiment: Test Example 1: herbicidal effect test by soil treatment in paddy field; settings: 120 g/10a, paddy soil treatment just after sowing, 14 days after treatment
From the text: as §2, with “greenhouse. Just” for “greenhouse. Seven days”, “after that,” for “after sowing,”, “Table 5” for “Table 6”, “are.” for “are. The test was performed with two replications per one formulation concentration plot, and 14 days after the formulation treatments, the weed suppression rate (%) was determined according to the equation (Math. 1).”
as §1

[6] = system: Scirpus juncoides; experiment: as above; settings: 120 g/10a, paddy soil treatment just after sowing, 14 days after treatment
From the text: as §2, with “greenhouse. Just” for “greenhouse. Seven days”, “after that,” for “after sowing,”, “Table 5” for “Table 6”, “are.” for “are. The test was performed with two replications per one formulation concentration plot, and 14 days after the formulation treatments, the weed suppression rate (%) was determined according to the equation (Math. 1).”
as §1

[7] = system: Echinochloa crus-galli; experiment: as above; settings: 120 g/10a, paddy soil treatment just after sowing, 14 days after treatment
From the text: as §2, with “greenhouse. Just” for “greenhouse. Seven days”, “after that,” for “after sowing,”, “Table 5” for “Table 6”, “are.” for “are. The test was performed with two replications per one formulation concentration plot, and 14 days after the formulation treatments, the weed suppression rate (%) was determined according to the equation (Math. 1).”
as §1

[8] = system: Monochoria vaginalis; experiment: as above; settings: 120 g/10a, paddy soil treatment just after sowing, 14 days after treatment
From the text: as §2, with “greenhouse. Just” for “greenhouse. Seven days”, “after that,” for “after sowing,”, “Table 5” for “Table 6”, “are.” for “are. The test was performed with two replications per one formulation concentration plot, and 14 days after the formulation treatments, the weed suppression rate (%) was determined according to the equation (Math. 1).”
as §1

## CC(C)N(C(=O)n1ncn(S(=O)(=O)C(C)C)c1=O)c1ccc(Cl)nc1 [Compound 1-97]
[1]
  weed suppression rate, Lindemia pyxidaria: 80%
[2]
  weed suppression rate, Scirpus juncoides: 80%
[3]
  weed suppression rate, Echinochloa crus-galli: 90%
[4]
  weed suppression rate, Monochoria vaginalis: 90%
[5]
  weed suppression rate, Lindemia pyxidaria: 80%
[6]
  weed suppression rate, Scirpus juncoides: 90%
[7]
  weed suppression rate, Echinochloa crus-galli: 90%
[8]
  weed suppression rate, Monochoria vaginalis: 90%

## CC(C)N(C(=O)n1ncn(S(=O)(=O)C2CC2)c1=O)c1ccc(Br)cc1Cl [Compound 1-218]
[1]
  weed suppression rate, Lindemia pyxidaria: 100%
[2]
  weed suppression rate, Scirpus juncoides: 100%
[3]
  weed suppression rate, Echinochloa crus-galli: 100%
[4]
  weed suppression rate, Monochoria vaginalis: 80%
[5]
  weed suppression rate, Lindemia pyxidaria: 100%
[6]
  weed suppression rate, Scirpus juncoides: 100%
[7]
  weed suppression rate, Echinochloa crus-galli: 100%
[8]
  weed suppression rate, Monochoria vaginalis: 80%

## CC(C)N(C(=O)n1ncn(S(=O)(=O)C2CC2)c1=O)c1ccc(Cl)cc1Br [Compound 1-219]
[1]
  weed suppression rate, Lindemia pyxidaria: 90%
[2]
  weed suppression rate, Scirpus juncoides: 100%
[3]
  weed suppression rate, Echinochloa crus-galli: 100%
[4]
  weed suppression rate, Monochoria vaginalis: 90%
[5]
  weed suppression rate, Lindemia pyxidaria: 100%
[6]
  weed suppression rate, Scirpus juncoides: 100%
[7]
  weed suppression rate, Echinochloa crus-galli: 100%
[8]
  weed suppression rate, Monochoria vaginalis: 100%

## Cc1cc(F)ccc1N(C(=O)n1ncn(S(=O)(=O)C2CC2)c1=O)C(C)C [Compound 1-220]
[1]
  weed suppression rate, Lindemia pyxidaria: 90%
[2]
  weed suppression rate, Scirpus juncoides: 90%
[3]
  weed suppression rate, Echinochloa crus-galli: 100%
[4]
  weed suppression rate, Monochoria vaginalis: 100%
[5]
  weed suppression rate, Lindemia pyxidaria: 100%
[6]
  weed suppression rate, Scirpus juncoides: 90%
[7]
  weed suppression rate, Echinochloa crus-galli: 100%
[8]
  weed suppression rate, Monochoria vaginalis: 80%

## Cc1ccc(N(C(=O)n2ncn(S(=O)(=O)C3CC3)c2=O)C(C)C)c(Cl)c1 [Compound 1-223]
[1]
  weed suppression rate, Lindemia pyxidaria: 80%
[2]
  weed suppression rate, Scirpus juncoides: 90%
[3]
  weed suppression rate, Echinochloa crus-galli: 90%
[4]
  weed suppression rate, Monochoria vaginalis: 80%
[5]
  weed suppression rate, Lindemia pyxidaria: 80%
[6]
  weed suppression rate, Scirpus juncoides: 90%
[7]
  weed suppression rate, Echinochloa crus-galli: 100%
[8]
  weed suppression rate, Monochoria vaginalis: 80%

## CC(C)N(Cc1ccc(F)cc1F)C(=O)n1ncn(S(=O)(=O)C2CC2)c1=O [Compound 1-238]
[1]
  weed suppression rate, Lindemia pyxidaria: 80%
[2]
  weed suppression rate, Scirpus juncoides: 90%
[3]
  weed suppression rate, Echinochloa crus-galli: 90%
[4]
  weed suppression rate, Monochoria vaginalis: 90%
[5]
  weed suppression rate, Lindemia pyxidaria: 80%
[6]
  weed suppression rate, Scirpus juncoides: 90%
[7]
  weed suppression rate, Echinochloa crus-galli: 90%
[8]
  weed suppression rate, Monochoria vaginalis: 80%

## CC(C)N(C(=O)n1ncn(S(=O)(=O)C2CC2)c1=O)c1ccc(Cl)nc1 [Compound 1-248]
[1]
  weed suppression rate, Lindemia pyxidaria: 90%
[2]
  weed suppression rate, Scirpus juncoides: 90%
[3]
  weed suppression rate, Echinochloa crus-galli: 100%
[4]
  weed suppression rate, Monochoria vaginalis: 90%
[5]
  weed suppression rate, Lindemia pyxidaria: 100%
[6]
  weed suppression rate, Scirpus juncoides: 100%
[7]
  weed suppression rate, Echinochloa crus-galli: 100%
[8]
  weed suppression rate, Monochoria vaginalis: 90%

## Cc1cc(N(C(=O)n2ncn(S(=O)(=O)C3CC3)c2=O)C(C)C)no1 [Compound 1-250]
[1]
  weed suppression rate, Lindemia pyxidaria: 90%
[2]
  weed suppression rate, Scirpus juncoides: 80%
[3]
  weed suppression rate, Echinochloa crus-galli: 90%
[4]
  weed suppression rate, Monochoria vaginalis: 90%
[5]
  weed suppression rate, Lindemia pyxidaria: 80%
[6]
  weed suppression rate, Scirpus juncoides: 90%
[7]
  weed suppression rate, Echinochloa crus-galli: 90%
[8]
  weed suppression rate, Monochoria vaginalis: 80%

## CC(C)N(C(=O)n1ncn(S(=O)(=O)C2CCCCC2)c1=O)c1ccccc1F [Compound 1-296]
[1]
  weed suppression rate, Lindemia pyxidaria: 90%
[2]
  weed suppression rate, Scirpus juncoides: 90%
[3]
  weed suppression rate, Echinochloa crus-galli: 90%
[4]
  weed suppression rate, Monochoria vaginalis: 90%
[5]
  weed suppression rate, Lindemia pyxidaria: 80%
[6]
  weed suppression rate, Scirpus juncoides: 90%
[7]
  weed suppression rate, Echinochloa crus-galli: 90%
[8]
  weed suppression rate, Monochoria vaginalis: 80%
